Here are results for one substance from patent US20150086557A1, “NOVEL INTEGRIN alpha9 beta1 LIGAND AND USES THEREOF” (OSAKA UNIVERSITY, priority 2012, published 2015).

For assay [1], the system named is A549 cells. The assay can be described thus: Cell adhesion assay on coated plates (A549 cells). In kind it is cell-based, human. To be noted: data not shown.
In assay [2] the test system is cardiac stem cells. As to the kind of experiment: Colony forming ability of GFP label-retaining cells (cardiac stem cells). Type of assay: cell-based, mouse. To be noted: 100 nM coating, 1×10^4 cells/well, 2 weeks, FIG. 26. From the text: Tissue stem cells are known to generally have a very prolonged, cell cycle and thus allow labeling compounds incorporated into DNA and the cell interior to remain stable for a long period of time without decay along with cell division, This nature can be advantageously used to identify and separate tissue stem cells by short-term labeling or cells with a nucleotide analog such as bromodeoxyuridine (BrdU) or a fusion protein of green fluorescent protein (hereinafter referred to as “GFP”) and a nucleoprotein, histone, followed by selection of cells retaining the label for a long period of time (label-retaining cells). In this experiment, with the use of a tetracycline-inducible expression system in combination with the ROSA26 promoter, a fusion protein of GFP and histone H2B (H2B-GFP) was expressed in the heart of a mouse for 2 weeks starting 1 week before birth, and 6 weeks later, cardiac stem cells were separated as GFP label-retaining cells from the heart.
To explore whether cardiac stem cells proliferate on a polydom-coated plate, colony formation was measured, as an indicator of proliferation. A Falcon 6-well plate was coated with 800 μl/well of 100 nM polydom or fibronectin at 4° C. overnight. GFP label-retaining cells were collected by FACSAria and suspended in IMDM containing 10% fetal calf serum. […] After drying, the number of colonies was counted under a microscope.

In assay [3] the target is T1, integrin α9β1 (Homo sapiens, UniProt P05556+Q13797).
T1 construct: A cDNA encoding the extracellular region of human integrin α9; An expression vector for the extracellular region of integrin β1; ACID coiled-coil (Velcro) peptide; FLAG; BASE coiled-coil (Velcro) peptide; made in house; host or cells: FreeStyle 293 Expression System (293-F cells)
T1 sequence (Q13797 30-981 limits assumed): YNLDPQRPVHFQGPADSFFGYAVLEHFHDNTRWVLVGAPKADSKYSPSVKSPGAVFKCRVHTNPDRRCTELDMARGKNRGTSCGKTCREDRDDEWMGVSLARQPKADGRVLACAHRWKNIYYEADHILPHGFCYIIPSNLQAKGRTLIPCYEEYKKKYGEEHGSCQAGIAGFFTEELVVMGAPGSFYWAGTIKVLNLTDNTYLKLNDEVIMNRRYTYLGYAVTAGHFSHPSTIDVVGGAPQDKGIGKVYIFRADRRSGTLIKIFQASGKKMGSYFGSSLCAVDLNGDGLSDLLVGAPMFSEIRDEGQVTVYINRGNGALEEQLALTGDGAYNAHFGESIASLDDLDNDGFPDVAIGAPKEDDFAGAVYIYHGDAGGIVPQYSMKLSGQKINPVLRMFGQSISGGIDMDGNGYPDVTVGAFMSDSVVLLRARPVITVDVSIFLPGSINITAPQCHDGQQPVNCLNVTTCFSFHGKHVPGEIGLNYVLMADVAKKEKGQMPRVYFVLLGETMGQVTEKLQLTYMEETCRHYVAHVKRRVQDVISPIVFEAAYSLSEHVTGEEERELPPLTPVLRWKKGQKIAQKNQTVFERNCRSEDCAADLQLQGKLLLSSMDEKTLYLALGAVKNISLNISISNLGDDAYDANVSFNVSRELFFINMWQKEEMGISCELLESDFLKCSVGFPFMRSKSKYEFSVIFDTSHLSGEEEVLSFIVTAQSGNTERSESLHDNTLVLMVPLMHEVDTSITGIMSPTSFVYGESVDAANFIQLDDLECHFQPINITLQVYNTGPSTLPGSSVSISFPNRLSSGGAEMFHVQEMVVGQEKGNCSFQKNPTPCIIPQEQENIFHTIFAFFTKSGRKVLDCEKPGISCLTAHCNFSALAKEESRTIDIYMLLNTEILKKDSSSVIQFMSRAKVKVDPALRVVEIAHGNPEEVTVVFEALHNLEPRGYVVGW
T1 sequence (P05556 21-728 limits assumed): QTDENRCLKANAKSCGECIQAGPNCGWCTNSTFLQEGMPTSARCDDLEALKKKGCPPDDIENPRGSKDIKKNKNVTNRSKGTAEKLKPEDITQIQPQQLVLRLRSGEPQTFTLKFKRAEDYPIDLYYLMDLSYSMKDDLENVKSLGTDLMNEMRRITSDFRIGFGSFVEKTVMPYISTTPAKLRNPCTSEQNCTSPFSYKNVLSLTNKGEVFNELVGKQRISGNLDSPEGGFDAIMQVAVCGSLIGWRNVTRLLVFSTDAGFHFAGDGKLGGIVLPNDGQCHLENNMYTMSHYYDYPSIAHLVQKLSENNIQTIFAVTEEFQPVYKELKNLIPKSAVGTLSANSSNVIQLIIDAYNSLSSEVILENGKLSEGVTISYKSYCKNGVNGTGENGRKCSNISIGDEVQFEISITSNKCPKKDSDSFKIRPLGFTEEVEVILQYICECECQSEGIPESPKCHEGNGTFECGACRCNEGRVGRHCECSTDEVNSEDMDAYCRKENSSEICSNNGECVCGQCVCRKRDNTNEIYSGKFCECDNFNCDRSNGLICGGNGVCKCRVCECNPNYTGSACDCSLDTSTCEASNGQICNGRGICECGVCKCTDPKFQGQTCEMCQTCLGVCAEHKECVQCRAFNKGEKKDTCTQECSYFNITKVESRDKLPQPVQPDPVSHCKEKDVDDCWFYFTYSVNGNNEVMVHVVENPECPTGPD
The assay can be described thus: Direct integrin binding assay with recombinant integrin α9β1. The source says:
A cDNA encoding the extracellular region of human integrin α9 was amplified by RT-PCR from total RNA extracted from RD cells and cloned into pBluescript KS(+). After verification of the nucleotide sequence, an error-free cDNA fragment was inserted into pcDNA-ACID-FLAG (Nishiuchi, R., Takagi, J., Hayashi, M., Ido, H., Yagi, Y., Sanzen, N., Tsuji, T., Yamada, M., and Sekiguchi, K. (2006) Matrix Biol. 25, 189-197). An expression vector for the extracellular region of integrin β1 was provided by Dr. Junichi Takagi (Takagi, J., Erickson, H. P., and Springer, T. A. (2001) Nat. Struct. Biol. 8, 412-416). The recombinant integrins were produced using the Freestyle™ 293 Expression System (Invitrogen) and purified as described in the above-mentioned publication Matrix Biol. 25, 189-197, (2006).
An integrin binding assay was performed as described in the above-mentioned publication Matrix Biol. 25, […], (2006). In some experiments, integrins were preincubated with synthetic peptides at various concentrations to evaluate the inhibitory activities of the synthetic peptides. The apparent dissociation constants were determined as described in Nishiuchi, R., Murayama, O., Fujiwara, H., Gu, J., Kawakami. T., Aimoto, S., Wada, Y., and Sekiguchi, K. (2003) J. Biochem, 134, 497-504.
To corroborate the role of integrin α9β1 as an adhesion receptor for polydom, a direct integrin binding assay was performed, using recombinant integrin α9β1. Plates were coated with full-length polydom, pol-N, pol-C, plasma fibronectin (pFN) or cellular fibronectin (cFN), and recombinant integrin α9β1 was added and allowed to bind thereto in the presence of 1 mM MnCl2 or 10 mM EDTA. BSA was used as a negative control. The bound integrin was quantified using a biotinylated anti-Velcro antibody and HRP-conjugated streptavidin.
Integrin α9β1 is known to bind to the third fibronectin type III domain of tenascin-C (TNfn3) and the osteopontin N-terminal half (OPN-Nhalf). These integrin α9β1 ligands were recombinantly expressed as GST fusion proteins and then purified. In the GST fusion proteins, the RGD cell-adhesive motifs were replaced with RAA to nullify their abilities to interact with RGD-binding integrins, such as those containing the αv subunit, Microtiter plates were coated with pol-C (10 nM), GST-TNfn3-RAA (100 nM) or GST-OPN-Nhalf-RAA (100 nM), and integrin α9β1 was added and allowed to bind thereto in the presence of 1 mM MnCl2.
To locate the integrin α9β1-binding site within polydom, a series of five N-terminal deletion mutants of polydom (pol-C, ΔEGF6, ΔPTX, ΔCCP20 and ΔCCP21; see FIG. 9) were constructed. Their binding activities for integrin α9β1 were evaluated in the presence of 1 mM MnCl2 or 10 mM EDTA using microtiter plates coated with these recombinant proteins (10 nM).
Among the 34 CCP domains within polydom, CCP21 is unique because it contains about 40 extra amino acids as compared with the other CCP domains. An assay to examine whether this extra region (hereinafter referred to as “extra segment”) within CCP21 is involved in binding to integrin α9β1 was performed, Microtiter plates were coated with a GST-CCP21 fusion protein, a D2628-S2664 deletion mutant of the GST-CCP21 fusion protein (CCP21ΔD2628-S2664), D2628-S2664 alone (see FIG. 11), pol-C or GST alone, and integrin α9β1 was added and allowed to bind thereto in the presence of 1 mM MnCl2 or 10 mM EDTA.
To further narrow down the region responsible for binding to integrin α9β1, the extra 37-amino acid segment of CCP21 was divided into smaller segments, of which GST fusion proteins were produced. Microtiter plates were coated with eight kinds of segments including CCP21, pol-C and GST alone, and integrin α9β1 was added and allowed to bind thereto in the presence of 1 mM MnCl2 or 10 mM EDTA.
To identify the residues involved in binding to Integrin α9β1, alanine scanning mutants and N-terminal or C-terminal deletion mutants of D2634-L2645 were produced as GST fusion proteins. […]

The test system of assay [4] is HT1080 cells. As to the kind of experiment: Cell adhesion assay on coated plates (HT1080 cells). Type of assay: cell-based, human. To be noted: data not shown.

For “polydom: recombinant mouse SVEP1 (SEQ ID NO: 2), ECM protein, ligand for integrin α9β1”, in assay [1], the “adhesion of A549 cells” value was “did not adhere”. In addition, the “colony forming activity (colony count relative to the number of cells plated)” value in assay [2] is given as “about 0.8%”. In addition, the “binding of recombinant integrin α9β1 to coated protein” value in assay [3] (1 mM MnCl2, FIG. 7) was “bound”. The “binding of recombinant integrin α9β1 in the presence of EDTA” value in assay [3] (10 mM EDTA, FIG. 7) is listed as “completely abrogated”. In addition, the “adhesion of HT1080 cells” value in assay [4] is “did not adhere”.
